In patent US9611281B2, “BODIPY derivatives and methods of synthesis and use thereof” (The Board of Regents of the University of Oklahoma, priority 2013, dated 2017):

Legend:
[1] = Optical properties (absorption, emission, extinction coefficient) of BDP635 and derivative SBDPiRs; format: physicochemical
nude mice = experiment: In vivo optical imaging with Compound 53; set-up: species or system mouse; conditions: for in vivo fluorescence image: 2.5 μmol/kg i.p.
Procedure: Optical imaging was performed with an IVIS Spectrum small-animal in vivo imaging system (Caliper LS). The Living Image Software v3.0 (Caliper LS) was used to analyze images and measurements of fluorescent signals. Excitation and emission wavelengths of 720 nm and 760 nm, respectively, were used to acquire in vivo fluorescent images of Compound 53 (M.W=[…]). All images were attained using a 1-s exposure time and an f/stop of 1, with a sampling of multiple angles with animal under Isoflurane anaesthesia. Animals were injected with 2.5 μmol/kg (2 mg/kg) of 53 via i.p. administration.

[2] = Photostability (photobleaching under light illumination); format: physicochemical
Procedure: (§1) Singlet oxygen generation and photostability: A singlet oxygen generation experiment on compound 53 using the indirect method of DPBF photooxidation was performed. There were strong similarities of the behavior of 53 towards DPBF with SBDPiR715. […] The photooxidation of DPBF was monitored by UV-vis spectrophotometer at 410 nm. […] Additionally, less than 30% of 53 photobleached under the harsh light illumination condition over a period of an hour, which is a strong evidence for photostability (FIG. 21).

[3] = Singlet oxygen generation, indirect method of DPBF photooxidation; conditions: DPBF photooxidation monitored at 410 nm
Procedure: as §1

[4] = system: BALB/c mice bearing colon-26 cells (mouse colon carcinoma cells); experiment: In vivo imaging with SBDPiR790; conditions: 2.5 μmol/kg i.p.
Procedure: Female Balb/c mice were purchased from NCI (Federick, Md.). Mice were housed and handled in the College of Pharmacy animal facility, University of Oklahoma Health Sciences Center, Oklahoma City, Okla. All animal experiments were approved by IACUC, University of Oklahoma Health Sciences Center (personal approval was offered). Injection solution of SBDPiR790 was prepared by solubilizing it in DMSO (4 mM), and then it was diluted with 1% Tween 80-5% dextrose solution (PBS). The solution was filtered through a 0.2 μm sterile syringe filter before i.p. injection.
BALB/c mice bearing colon-26 cells (mouse colon carcinoma cells) were used for this study. 6-8 week old Balb/c mice were shaved and depilated with hair removal cream (Nair) at the upper back. The mice were subcutaneously inoculated with colon 26 cells at the neck region with […] in 0.1 ml PBS solution. Tumors with 4-6 mm diameter size were made in a week. The in vivo Xtreme imaging system (Carestream Health, Inc.) was used in acquiring images as mice were kept under safe anaesthesia using Isoflurane. The instrumental conditions for the imaging were as follows: fluorescence mode with excitation 760 nm and emission 830 nm; exposure time 5 sec; F/stop: 2 and pixel 2×2. Images collected were then processed using the Carestream MI imaging software to equally adjusted minima and maxima scale.
All mice received 2.5 μmol/kg of SBDPiR790 (MW=636.11 g/mol) solution in PBS (0.2 ml) via i.p. injection. Images were taken at 0 (before), 15 minutes, 3, 6, and 24 hours postinjection. […] Particularly SBDPiR790 can be a practical alternative to the sole clinically approved NIR probe, ICG. The stability, and excellent photophysical properties of SBDPiR790 and its lipophilic character make it useful for varied applications including cancer diagnosis and neurological imaging taking advantage of its ability to cross the blood-brain barrier.

| Compound | ε [1] | λabs [1] | λflu [1] | further results |
| --- | --- | --- | --- | --- |
| F[B-]1(F)n2c(cc3sc(-c4cccs4)cc32)C(C(F)(F)F)=C2C=c3sc(-c4cccs4)cc3=[N+]21 [SBDPiR735, 2,8-Di(thiophenyl)-11-trifluoromethyl-dithieno[2,3-b]-[3,2-g]-5,5-difluoro-5-bora-3a,4a-diaza-s-indacene] | 125 000 M^−1 cm^−1 | 733 nm | 763 nm | – |
| F[B-]1(F)n2c(cc3sc(Oc4ccc(-c5ccccc5)cc4)cc32)C(C(F)(F)F)=C2C=c3sc(Oc4ccc(-c5ccccc5)cc4)cc3=[N+]21 [SBDPiR650, 2,8-Di(biphenyl-4-yloxy)-11-trifluoromethyl-dithieno[2,3-b]-[3,2-g]-5,5-difluoro-5-bora-3a,4a-diaza-s-indacene] | 83 000 M^−1 cm^−1 | 649 nm | 660 nm | – |
| COC(=O)c1ccc(C2=C3C=c4sc(-c5ccc(OC)cc5)cc4=[N+]3[B-](F)(F)n3c2cc2sc(-c4ccc(OC)cc4)cc23)cc1 [Compound 50, 2,8-Di(4-Methoxy-phenyl)-11-benzoic acid methyl ester-dithieno[2,3-b]-[3,2-g]-5,5-difluoro-5-bora-3a,4a-diaza-s-indacene] | – | – | – | fluorescence [1]: relatively low fluorescence; 0-0 absorption ([1]; in CHCl3): 685 nm; molar extinction coefficient ([1]; in CHCl3): 85 000 M^−1 cm^−1 |
| O=C(O)COc1ccc(-c2sc3c(c2Br)=[N+]2C(=C(C(F)(F)F)c4cc5sc(-c6ccc(OCC(=O)O)cc6)c(Br)c5n4[B-]2(F)F)C=3)cc1 [Compound 53, 3,7-Dibromo-2,8-di(4-Carboxymethoxy-phenyl)-11-trifluoromethyl-dithieno[2,3-b]-[3,2-g]-5,5-difluoro-5-bora-3a,4a-diaza-s-indacene] | – | – | – | in vivo fluorescence signal (nude mice; 2.5 μmol/kg (2 mg/kg) i.p., ex 720 nm / em 760 nm): Bright fluorescence signals were detected; in vivo fluorescence image (nude mice; 5 and 10 minutes): two bright areas were observed in the mid-body; in vivo fluorescence image (nude mice; 3 hours and 6 hours): most skin showed bright emission; in vivo fluorescence image (nude mice; 12 hours): the intensity of skin was lower than the 3 hour and 6 hour images; photostability compared with m-THPC [2]: relatively better than the clinically approved m-THPC (Foscan); fraction photobleached ([2]; harsh light illumination over a period of an hour): less than 30%; singlet oxygen generation [3]: potent singlet oxygen generator |
| F[B-]1(F)n2c(cc3sc(C=Cc4ccccc4)cc32)C(C(F)(F)F)=C2C=c3sc(C=Cc4ccccc4)cc3=[N+]21 [SBDPiR755, 2,8-Di(styryl)-11-trifluoromethyl-dithieno[2,3-b]-[3,2-g]-5,5-difluoro-5-bora-3a,4a-diaza-s-indacene] | 110 000 M^−1 cm^−1 | 753 nm | 785 nm | – |
| Oc1ccc(-c2cc3c(s2)=CC2=C(C(F)(F)F)c4cc5sc(-c6ccc(O)cc6)cc5n4[B-](F)(F)[N+]=32)cc1 [SBDPiR740, 2,8-Di(4-hydroxyphenyl)-11-trifluoromethyl-dithieno[2,3-b]-[3,2-g]-5,5-difluoro-5-bora-3a,4a-diaza-s-indacene] | 101 000 M^−1 cm^−1 | 738 nm | 763 nm | – |
| COc1ccc(C=Cc2cc3c(s2)=CC2=C(C(F)(F)F)c4cc5sc(C=Cc6ccc(OC)cc6)cc5n4[B-](F)(F)[N+]=32)cc1 [SBDPiR790, 2,8-Di(4-(methoxy-phenyl)vinyl)-11-trifluoromethyl-dithieno[2,3-b]-[3,2-g]-5,5-difluoro-5-bora-3a,4a-diaza-s-indacene] | 85 000 M^−1 cm^−1 | 786 nm | – | in vivo fluorescence emission image ([4]; 15 minutes postinjection, ex 760 nm / em 830 nm): most of the dye still remained in the peritoneal cavity; in vivo fluorescence emission image ([4]; 3 hours postinjection): all skin area showed relatively bright emission with intense bright spots in mid-body; in vivo fluorescence emission image ([4]; 6 hours postinjection): an intense emission was observed in the tumor area; in vivo fluorescence emission image ([4]; 24 hours postinjection): brighter emission was observed at the tumor site than other body |

Further lines, with some results ahead:

| ε [1] | λabs [1] | λflu [1] | Compound | further results |
| --- | --- | --- | --- | --- |
| – | 841 nm | – | CN(C)c1ccc(-c2cc3c(s2)=CC2=C(C(F)(F)F)c4cc5sc(-c6ccc(N(C)C)cc6)cc5n4[B-](F)(F)[N+]=32)cc1 [SBDPiR840, 2,8-Di(4-N,N,dimethylaminophenyl)-11-trifluoromethyl-dithieno[2,3-b]-[3,2-g]-5,5-difluoro-5-bora-3a,4a-diaza-s-indacene] | – |
| 185 000 M^−1 cm^−1 | 731 nm | 755 nm | COc1ccc(-c2cc3c(s2)=CC2=C(C(F)(F)F)c4cc5sc(-c6ccc(OC)cc6)cc5n4[B-](F)(F)[N+]=32)cc1 [SBDPiR731, 2,8-Di(4-methoxyphenyl)-11-trifluoromethyl-dithieno[2,3-b]-[3,2-g]-5,5-difluoro-5-bora-3a,4a-diaza-s-indacene] | – |
| 140 000 M^−1 cm^−1 | 728 nm | 761 nm | COc1cc(-c2cc3c(s2)=CC2=C(C(F)(F)F)c4cc5sc(-c6cc(OC)c(OC)c(OC)c6)cc5n4[B-](F)(F)[N+]=32)cc(OC)c1OC [SBDPiR730, 2,8-Di(3,4,5-trimethoxyphenyl)-11-trifluoromethyl-dithieno[2,3-b]-[3,2-g]-5,5-difluoro-5-bora-3a,4a-diaza-s-indacene] | – |
| 118 000 M^−1 cm^−1 | 649 nm | 660 nm | COc1ccc(Oc2cc3c(s2)=CC2=C(C(F)(F)F)c4cc5sc(Oc6ccc(OC)cc6)cc5n4[B-](F)(F)[N+]=32)cc1 [SBDPiR650_OMe, 2,8-Di(4-methoxyphenoxy)-11-trifluoromethyl-dithieno[2,3-b]-[3,2-g]-5,5-difluoro-5-bora-3a,4a-diaza-s-indacene] | – |
| 105 000 M^−1 cm^−1 | 694 nm | 715 nm | F[B-]1(F)n2c(cc3sc(Sc4ccccc4)cc32)C(C(F)(F)F)=C2C=c3sc(Sc4ccccc4)cc3=[N+]21 [SBDPiR700, 2,8-Di(thiophenoxy)-11-trifluoromethyl-dithieno[2,3-b]-[3,2-g]-5,5-difluoro-5-bora-3a,4a-diaza-s-indacene] | – |
| – | 635 nm | 650 nm | 2,8-Di(bromo)-11-trifluoromethyl-dithieno[2,3-b]-[3,2-g]-5,5-difluoro-5-bora-3a,4a-dithio-s-indacene [BDP635] | – |
